This experiment deals with Mycobacterium tuberculosis. Kind of experiment: Antimycobacterial activity against miltidrug-resistant Mycobacterium tuberculosis. In kind it is functional.

Results on one molecule are retold here after ChEMBL document CHEMBL4330134, “Design, synthesis, and bioevaluation of a novel class of (E)-4-oxo-crotonamide derivatives as potent antituberculosis agents” (Bioorg Med Chem Lett, 2019).

Values after ≈ are worked out from the molar mass of the structure shown.

As a reminder, the MIC is the smallest concentration in the dilution series that meets the test's criterion for growth inhibition. `COC(=O)/C=C/C(=O)c1ccc(OC)cc1`: the minimum inhibitory concentration (MIC) lay in the range of 0.25 to 1 µg/mL (≈ 1.14 to 4.54 µM).
